Results from ChEMBL document CHEMBL1287646, “Chemometric modeling of free radical scavenging activity of flavone derivatives” (Eur J Med Chem, 2010).

System: Radical scavenging activity
Experiment: Antioxidant activity assessed as DPPH radical scavenging activity
Type: functional

| Structure (SMILES) | ED50 [µM] |
| --- | --- |
| O=C(Cc1ccccc1)c1cc(O)c(O)cc1O | 29 |
| COc1cc2c(cc1O)CC(c1ccc(OC)c(OC)c1)CO2 (stereo not given) | 56 |
| COc1ccc(C(=O)Cc2ccc(O)c(O)c2)c(O)c1O | 20 |
| COc1ccc(-c2coc3cc(O)c(O)cc3c2=O)cc1 | 29 |
| O=c1c(-c2ccccc2)coc2cc(O)c(O)cc12 | 44 |
| COc1cc2occ(-c3ccc(O)c(O)c3)c(=O)c2cc1OC | 46 |
| COc1cc(-c2coc3cc(OC)c(OC)cc3c2=O)ccc1O | 722 |
| COc1cc(O)c(C(=O)Cc2ccc(OC)c(OC)c2)cc1O | 39 |
| COc1ccc(CC(=O)c2cc(O)c(O)cc2O)cc1 | 32 |
| Oc1ccc2c(c1O)OCC(c1ccccc1)C2 (stereo not given) | 37 |
| Cc1ccc2c(=O)c(-c3ccc(O)c(O)c3)coc2c1O | 46 |
| O=c1c(-c2ccc(O)cc2)coc2cc(O)c(O)cc12 | 29 |
| O=c1c(-c2ccc(O)c(O)c2)coc2cc(O)ccc12 | 30 |
| CC(C(=O)c1ccc(O)c(O)c1O)c1ccc(O)cc1 (stereo not given) | 18 |
| COc1cc(O)c(C(=O)Cc2ccc(O)c(O)c2)cc1O | 19 |
| Oc1ccc(C2COc3c(ccc(O)c3O)C2)cc1O (stereo not given) | 22 |
| Cc1c(O)cc(C(=O)Cc2ccc(O)c(O)c2)c(O)c1C | 18 |
| COc1cc(-c2coc3cc(O)c(OC)cc3c2=O)ccc1O | 655 |
| COc1ccc(C2COc3c(ccc(O)c3O)C2)cc1 (stereo not given) | 36 |
| COc1ccc(C2COc3cc(O)c(OC)cc3C2)cc1 (stereo not given) | 26 |
| COc1cc2c(cc1O)CC(c1ccc(O)cc1)CO2 (stereo not given) | 62 |
| Cc1c(O)cc(C(=O)Cc2ccccc2)c(O)c1C | 42 |

| Structure (SMILES) | ED50 [µM] |
| --- | --- |
| COc1ccc2c(=O)c(-c3ccc(O)c(O)c3)coc2c1O | 53 |
| COc1ccc(C(=O)Cc2ccccc2)c(O)c1O | 20 |
| COc1cc(O)c(C(=O)Cc2ccc(O)c(O)c2)cc1OC | 25 |
| COc1ccc(C2COc3c(ccc(C)c3O)C2)cc1 (stereo not given) | 52 |
| Cc1ccc2c(c1O)OCC(c1ccccc1)C2 (stereo not given) | 61 |
| Cc1cc(O)c(C(=O)Cc2ccc(O)cc2)cc1O | 31 |
| O=C(Cc1ccc(O)cc1)c1cc(O)c(O)cc1O | 27 |
| COc1ccc(C2COc3cc(OC)c(O)cc3C2)cc1 (stereo not given) | 60 |
| O=c1c(-c2ccc(O)cc2)coc2c(O)c(O)ccc12 | 34 |
| COc1ccc(C2COc3c(ccc(O)c3O)C2)cc1OC (stereo not given) | 105 |
| COc1ccc2c(c1O)OCC(c1ccccc1)C2 (stereo not given) | 168 |
| COc1cc(-c2coc3c(O)c(C)ccc3c2=O)ccc1O | 476 |
| COc1cc(-c2coc3cc(O)ccc3c2=O)ccc1O | 805 |
| O=C(Cc1ccccc1)c1ccc(O)c(O)c1O | 32 |
| COc1ccc2c(=O)c(-c3ccccc3)coc2c1O | 812 |
| COc1cc(-c2coc3c(O)c(O)ccc3c2=O)ccc1O | 33 |
| Cc1cc2occ(-c3ccc(O)c(O)c3)c(=O)c2cc1O | 23 |
| COc1cc2occ(-c3ccc(O)c(O)c3)c(=O)c2cc1O | 36 |
| Oc1ccc2c(c1)OCC(c1ccc(O)c(O)c1)C2 (stereo not given) | 37 |
| COc1cc(CC(=O)c2ccc(O)cc2O)ccc1O | 180 |
| COc1ccc(CC(=O)c2cc(O)c(C)c(C)c2O)cc1 | 93 |
| COc1cc(CC(=O)c2cc(O)c(C)cc2O)ccc1O | 22 |

| Structure (SMILES) | ED50 [µM] |
| --- | --- |
| O=c1c(-c2ccc(O)c(O)c2)coc2c(O)c(O)ccc12 | 16 |
| Cc1ccc2c(c1O)OCC(c1ccc(O)cc1)C2 (stereo not given) | 111 |
| Cc1c(O)cc2c(=O)c(-c3ccc(O)c(O)c3)coc2c1C | 85 |
| O=C(Cc1ccc(O)c(O)c1)c1ccc(O)cc1O | 20 |
| Cc1c(O)cc2c(c1C)OCC(c1ccccc1)C2 (stereo not given) | 81 |
| COc1ccc(CC(=O)c2ccc(O)c(O)c2O)cc1OC | 63 |
| Cc1cc(O)c(C(=O)Cc2ccccc2)cc1O | 43 |
| COc1cc(O)c(C(=O)Cc2ccc(O)cc2)cc1O | 38 |
| COc1cc(-c2coc3cc(OC)c(O)cc3c2=O)ccc1O | 404 |
| COc1ccc(-c2coc3c(O)c(OC)ccc3c2=O)cc1 | 489 |
| Cc1c(O)cc(C(=O)Cc2ccc(O)cc2)c(O)c1C | 33 |
| COc1cc(O)c(C(=O)C(C)c2ccc(O)cc2)cc1O (stereo not given) | 45 |
| COc1ccc(CC(=O)c2cc(O)c(OC)cc2O)cc1 | 31 |
| COc1cc(CC(=O)c2cc(O)c(OC)cc2O)ccc1O | 26 |
| COc1cc(CC(=O)c2cc(OC)c(O)cc2O)ccc1O | 129 |
| COc1ccc(CC(=O)c2ccc(OC)c(O)c2O)cc1 | 44 |
| O=C(Cc1ccc(O)c(O)c1)c1ccc(O)c(O)c1O | 12 |
| COc1cc(CC(=O)c2cc(OC)c(OC)cc2O)ccc1O | 84 |
| O=C(Cc1ccc(O)cc1)c1ccc(O)c(O)c1O | 22 |
| COc1ccc(C2COc3cc(O)cc(O)c3C2)cc1 (stereo not given) | 26 |
| COc1cc2c(cc1OC)OCC(c1ccc(O)c(O)c1)C2 (stereo not given) | 69 |
| Cc1cc(O)c(C(=O)Cc2ccc(O)c(O)c2)cc1O | 20 |

| Structure (SMILES) | ED50 [µM] |
| --- | --- |
| O=c1c(-c2ccccc2)coc2c(O)c(O)ccc12 | 29 |
| COc1cc(CC(=O)c2ccc(OC)c(O)c2O)ccc1O | 28 |
| Oc1ccc(C2COc3c(ccc(O)c3O)C2)cc1 (stereo not given) | 37 |
| CC(C(=O)c1ccc(O)c(O)c1O)c1ccccc1 (stereo not given) | 23 |
| COc1cc2c(cc1O)OCC(c1ccc(O)cc1)C2 (stereo not given) | 26 |
| COc1cc2c(cc1O)OCC(c1ccccc1)C2 (stereo not given) | 29 |
| COc1cc(-c2coc3cc(C)c(O)cc3c2=O)ccc1O | 232 |
| COc1cc2c(cc1O)CC(c1ccccc1)CO2 (stereo not given) | 49 |
| COc1cc(-c2coc3c(O)c(OC)ccc3c2=O)ccc1O | 228 |
| COc1cc(CC(=O)c2ccc(O)c(O)c2O)ccc1O | 25 |
| COc1ccc(CC(=O)c2ccc(O)c(O)c2O)cc1 | 38 |
| COc1ccc(C2COc3cc(C)c(O)cc3C2)cc1 (stereo not given) | 45 |
| COc1cc(O)c(C(=O)C(C)c2ccccc2)cc1O (stereo not given) | 48 |
| COc1ccc(-c2coc3c(O)c(O)ccc3c2=O)cc1 | 51 |
| COc1ccc(CC(=O)c2cc(O)c(C)cc2O)cc1 | 23 |
| COc1ccc(C2COc3c(ccc(OC)c3O)C2)cc1 (stereo not given) | 224 |
| COc1ccc(-c2coc3cc(O)c(OC)cc3c2=O)cc1 | 663 |
| COc1cc(O)c(C(=O)Cc2ccccc2)cc1O | 51 |
| Oc1ccc(C2COc3cc(O)cc(O)c3C2)cc1 (stereo not given) | 32 |
